`Cc1cn(NCCCc2ccncc2F)c2ccc(OCc3ccccc3)cc12` showed a melting point of 94 to 96 °C.
Work on `CC(C)Oc1ccc(NC(=S)NCc2ccoc2)cc1` yielded a melting point of 89 to 90 °C.
`CCc1[nH]n(C2CCCC2)c2nc(Cc3ccc(OC(=O)c4ccc(CN(CC)CC)cc4)cc3)nc(=O)c1-2` showed a melting point of 143 to 145 °C.
For `O=C(O)C=CC(=O)Nc1ccc2ncnc(Nc3cccc(Br)c3)c2c1`, the melting point was 224 to 225 °C.
For `CN(C(=O)C1CC1)c1cccc(-c2ccnc3c(C(=O)c4ccccc4)cnn23)c1`, the melting point was 168 to 170 °C.
Work on `Nc1ccccc1NC(=O)CCN1CCN(c2cccc(C(F)(F)F)c2)CC1` yielded a melting point of 194 to 196 °C.
`CCON=C(c1ccccc1COc1ccccc1)n1cncn1` showed a melting point of 78.5 to 80.5 °C.
`ON=c1cc(-c2cn3cccc3cn2)oc2ccc(OCCc3ccc(F)cc3)cc12` gave a melting point of 248 to 250 °C.
`CC(C)(C)OC(=O)C1CCCN2CC(CBr)C(=O)N12` (stereo not drawn) showed a melting point of 88 to 89 °C.
`CCCc1nc2c(N)nc3cc(-c4cccc(S(C)(=O)=O)c4)ccc3c2s1` showed a melting point of 242 to 245 °C.
Compound `COC(=O)c1ccc(/C=C(\C)c2ccc3c(c2)CCCCN3C)cc1` has a melting point of 106 °C.
`CCC(CC)Oc1cc(C)nc2c1nc(C)c(=O)n2-c1c(C)cc(C)cc1C` gave a melting point of 215 to 217 °C.
`Cc1ccc(S(=O)(=O)C(=CNc2ccc(Br)cn2)C(=O)c2ccccc2)cc1` showed a melting point of 205 °C.
`Cn1cc(Nc2ccc([N+](=O)[O-])cc2[N+](=O)[O-])cn1` gave a melting point of 149 °C.
`COc1cccc2c1CC(C(=O)NCc1ccc(C(=O)O)cc1)N2S(=O)(=O)c1ccc(-c2ccc(F)cc2Cl)cc1` (stereo not drawn) gave a melting point of 225 to 234 °C.
In the case of `CCCCCCCCCCN(C[C@H]1CC[C@H](CN(CCCCCCCCCC)C(=O)Nc2ccc(N(C)C)cc2)CC1)C(=O)Nc1ccc(N(C)C)cc1`, the melting point is reported as 125 to 127 °C.
Compound `COc1cc(N)c(Cl)cc1C(=O)NCC1CCN(CCCCCCSc2ccccc2)CC1` has a melting point of 68 to 70 °C.
In the case of `COC(=O)C1=C(C)NC(C)=C(C(=O)OCCN2CC=C(c3ccccc3)CC2)C1c1cccc([N+](=O)[O-])c1` (stereo not drawn), the melting point is reported as 115 to 116 °C.
In the case of `Cc1cccc(COc2cccc(OCc3ccc4cc(F)c(F)cc4n3)c2)c1OCC(=O)O`, the melting point is reported as 94 to 95 °C.
Compound `CCOC(=O)C(Cl)=Cc1cc(NC(=O)C2=C(C(N)=O)CCCC2)ccc1Cl` has a melting point of 185 to 186 °C.
In the case of `CCn1ncc(C(=O)c2ccc(S(C)(=O)=O)c(N3CCOC(=O)C3)c2Cl)c1O`, the melting point is reported as 198 to 202 °C.
Work on `CCCCOC(=O)c1cccc(-c2c3nn(-c4ccc(Cl)cc4)c(=O)c-3c[nH]c2C)c1` yielded a melting point of 185 to 190 °C.
With `COC(=O)c1cc2c(O)c(C(=O)NCc3ccc(Cl)cc3)cnc2s1` the melting point was 238 to 240 °C.
In the case of `O=C(Cn1c(-c2ccccc2)ccc(NC(=O)OCc2ccccc2)c1=O)NC(Cc1ccccc1)C(=O)C(F)(F)F` (stereo not drawn), the melting point is reported as 178 to 181 °C.
With `CN=c1c2c(C)c(C)n(-c3ccccc3)c2nc(C)n1C` the melting point was 132 to 133 °C.
In the case of `C#CCn1c(=O)sc2cc(F)c(-n3c(=O)cc(C)[nH]c3=O)cc21`, the melting point is reported as greater than 250 °C.
With `Cc1ccc2c(c1)C=Cc1cc(C)ccc1C2c1cn(-c2ccnc(N3CCC[C@H]3C(=O)O)n2)c(=O)[nH]c1=O` the melting point was 200 to 205 °C.
For `N#Cn1nc(-c2ccccc2)c(=O)cc1I`, the melting point was 135 to 137 °C.
Compound `CC1(CCCn2cc(C=O)c3ccccc32)OCCO1` has a melting point of 52 to 55 °C.
`COc1cccc([C@H]2O[C@H](CC(=O)N[C@H](C)C(=O)OC(C)(C)C)C(=O)N(CC(C)(C)C)c3ccc(Cl)cc32)c1OC` gave a melting point of 127 to 128 °C.
`CC(=O)c1c(N(C)C)c(-c2ccccc2)n(Cc2ccc(Cl)cc2)c1C` gave a melting point of 118 to 119 °C.
Work on `Cc1cccc(C(N)=O)c1Nc1nc(Nc2ccc3c(c2)N(C(C)C)C(=O)CCC3)ncc1Cl` yielded a melting point of 140 to 160 °C.
For `CC#CC(=O)c1c(-c2ccc(F)cc2)nn2c(Cl)cccc12`, the melting point was 182 to 183 °C.
With `COc1ccc(Cn2c(=O)ccc3cnc(Cl)cc32)cc1Cl` the melting point was 208 to 210 °C.
Work on `CCOC(=O)C1=C(C)NC(CN(C)C)=C(C(=O)OCC)C1c1ccccc1Br` (stereo not drawn) yielded a melting point of 142 to 143 °C.
For `CCCc1c(CSc2nnc(SCCCCCCC(=O)O)s2)ccc(C(C)=O)c1O`, the melting point was 63 to 68 °C.
`COc1ccc(-c2nc(CSCCO)nc3cc(OC)c(OC)cc23)cc1OC` gave a melting point of 154 to 155 °C.
For `O=[N+]([O-])C=C1NCCCN1Cc1ccc(Cl)cc1`, the melting point was 172 to 174 °C.
Compound `Cc1ccc2c(C(=O)NCCc3ccccc3)c(Cl)ccc2n1` has a melting point of 170 to 172 °C.
`CN1C[C@]2(C)CC[C@](NCC(=O)N3C[C@@H](F)C[C@H]3C#N)(C1)C2(C)C` gave a melting point of 122 to 126 °C.
`CN(C(=O)c1ccc(Cn2cnc3ccccc32)cc1)[C@@H]1CCNC1` gave a melting point of 150 to 152 °C.
Compound `CCOc1c(C=O)cc2c3c(cccc13)-c1ccccc1-2` has a melting point of 118 to 119 °C.
For `CC(O)Cn1nc2c3c(cc([N+](=O)[O-])cc31)CCC2` (stereo not drawn), the melting point was 147 to 148 °C.
In the case of `Cc1ccc(CCO)c(NCc2ccc3nc(NCCCN4CCOCC4)n(Cc4ncccc4O)c3c2)c1`, the melting point is reported as 192 °C.
For `NS(=O)(=O)c1ccc(-n2nc(C(F)(F)F)cc2-c2ccc(-c3cscn3)c(F)c2)cc1F`, the melting point was 196 to 198 °C.
In the case of `Cc1nc(C)n(-c2cc([C@@H]3C[C@H]3c3nc4ccccc4n3C)nc(C(F)(F)F)n2)n1` (relative stereo), the melting point is reported as 151 to 153 °C.
Compound `CCOC(=O)c1cc(C#N)c(N)cc1OC` has a melting point of 164 °C.
For `CC(=O)NCC1CC1c1c(C)ccc2nn(C)cc12` (stereo not drawn), the melting point was 139 to 140 °C.
`N#Cn1nc(-c2ccccc2)c(=O)cc1Br` showed a melting point of 152 to 155 °C.
Work on `COc1ccc(NC(=O)/C(C)=C/c2ccc(C(F)(F)F)cc2)c(C(=O)O)c1` yielded a melting point of 207 to 208 °C.
For `CCC(O)(c1ccc(OCCCc2ccccc2)cc1)c1ccccc1OC` (stereo not drawn), the melting point was 75 to 76 °C.
`CCOC(=O)N1CCC(C(=O)c2ccc(F)cc2)(c2ccccc2)CC1` showed a melting point of 91.7 °C.
Compound `COCCOc1cc(N(C)S(=O)(=O)c2ccccn2)c2[nH]c(C3=NCC(CC(=O)N(C)CCO)S3)cc2c1` (stereo not drawn) has a melting point of 94 to 96 °C.
With `Cc1ccc2ccc(=O)oc2c1C` the melting point was 122 to 123 °C.
`CCOC(=O)C(C(=O)Nc1nccs1)C(=O)c1cccc(C(F)(F)F)c1NC(=O)C(Cl)C(C)(C)C` (stereo not drawn) gave a melting point of 180 °C.
For `COc1ccc2nc(C(=O)Nc3nnn(Cc4ccc(Cl)c(Cl)c4)c3C)sc2c1`, the melting point was 176 °C.
`O=[N+]([O-])OCCNC(=S)Cc1ccccc1` showed a melting point of 63 to 65 °C.
Work on `COc1nc(NC(=O)Nc2ccccc2OC)nc(N(CCC(=O)O)Cc2ccc(Cl)c(Cl)c2)n1` yielded a melting point of 208 to 210 °C.
`O=C(O)c1ccc2nc(S)[nH]c2c1` showed a melting point greater than 250 °C.
Compound `O=C1c2cccc3c([N+](=O)[O-])ccc(c23)C(=O)N1O` has a melting point of 255 to 260 °C.
Work on `Cc1cc(C(O)(C(F)(F)F)C(F)(F)F)cc(C)c1NCCN(C)C` yielded a melting point of 112 to 115 °C.
`CCCc1nc(-n2cccc2C(=O)C(F)(F)F)c(C(=O)OC)[nH]1` gave a melting point of 158 to 159 °C.
`CC(C)CC1(C(CCN2C(=O)c3ccccc3C2=O)C(=O)NO)CCN(CCc2ccccc2)C1=O` (stereo not drawn) showed a melting point of 102 to 105 °C.
Compound `Cc1cn(C)c2c1N(C(=O)CCN1CCCC1)c1ccccc1NC2=O` has a melting point of 185 °C.
In the case of `CCOC(=O)c1cc(C(=O)c2cccc(S(=O)(=O)F)c2)sc1N=Nc1ccc(O)c(N)n1`, the melting point is reported as 170 to 172 °C.
Compound `O=C(O)CCC(=C1SCCCS1)c1ccc(Oc2ccccc2)cc1` has a melting point of 154 to 155 °C.
Work on `O=C(O)CNC(=O)C(NC(=O)c1ccccc1)SC(=O)c1ccccc1` (stereo not drawn) yielded a melting point of 162 to 164 °C.
For `CC(C)C(=O)N1CCC(c2nc3cc(-c4ccc(-n5cnnn5)cc4F)ccc3o2)CC1`, the melting point was 190 to 194 °C.
In the case of `CCCN=C(N)Nc1ccnc(C(CCC)C(=N)N)n1` (stereo not drawn), the melting point is reported as 202 to 205 °C.
`CC(=O)N1c2ccc(-c3ccc(C(=O)O)cc3)cc2C(Nc2ccccc2)CC1C` (stereo not drawn) showed a melting point of 246 °C.
Work on `CN(C(N)=O)[C@@H]1c2cc(C#N)ccc2OC(C)(C)[C@H]1O` (relative stereo) yielded a melting point of 135 to 137 °C.
In the case of `OC(CCCl)c1ccccc1` (stereo not drawn), the melting point is reported as 56 to 57 °C.
Work on `COc1ccc(Sc2ccc([N+](=O)[O-])cc2[N+](=O)[O-])c(N)c1` yielded a melting point of 169 to 172 °C.
`O=C1OC(CCl)CN1c1ccc(Cl)cc1` (stereo not drawn) gave a melting point of 119 to 120 °C.
In the case of `O=C(CCN1CCN(c2ccccc2)CC1)c1ccc2oc3ccc(C(=O)CCN4CCN(c5ccccc5)CC4)cc3c(=O)c2c1`, the melting point is reported as 199 to 201 °C.
Work on `COCc1c(C(=O)OC(C)C)ncc2[nH]c3cccc(Cc4ccccc4Cl)c3c12` yielded a melting point of 187 to 189 °C.
`Cc1oc(-c2ccccc2)nc1CCOc1ccc(COc2nn(C)cc2CC(=O)O)cc1` showed a melting point of 148 to 149 °C.
In the case of `O=C(OCC1OC(n2cnc3c(NOCc4ccccc4)nc(Cl)nc32)C(OC(=O)c2ccccc2)C1OC(=O)c1ccccc1)c1ccccc1` (stereo not drawn), the melting point is reported as 115 to 119 °C.
`CCOC(=O)c1csc(Nc2ccc(F)cc2)n1` gave a melting point of 133 to 136 °C.
Compound `NN(C(=O)c1ccc(Cl)c(S(N)(=O)=O)c1)c1ccc(C(=O)c2ccccc2)cc1[N+](=O)[O-]` has a melting point of 148 °C.
With `COc1ccc2c3c1CCCC3C(CN1CCN(C)CC1)CC2` (stereo not drawn) the melting point was 115 to 116 °C.
`COC(=O)C=CC=CCSc1ccc2ccccc2c1` showed a melting point of 73 to 75 °C.
With `C[C@H](NC(=O)OC(C)(C)C)C(=O)C=[N+]=[N-]` the melting point was 99 to 102 °C.
With `Cc1ccc(NC(=O)N(C)Cc2cccc3c2C(=O)N(C2CCC(=O)NC2=O)C3=O)cc1` (stereo not drawn) the melting point was greater than 260 °C.
Work on `Cc1ccc(S(=O)(=O)NCCc2ccc(C(=O)CN3CCN(c4ccncc4)CC3)cc2)cc1` yielded a melting point of 133 to 135 °C.
`O=C(N[C@@H](CO)C(=O)NCCc1ccccc1)c1ccc(C(=O)c2cccnc2)cc1` showed a melting point of 85 to 90 °C.
For `CCCCCCC(=O)Nc1cccc2c1C(=O)N(C1CCC(=O)NC1=O)C2=O` (stereo not drawn), the melting point was 200 to 202 °C.
Compound `COc1ccc(C=C2N=C(c3ccccc3I)OC2=O)cc1OC` has a melting point of 200 to 202 °C.
`Cc1c[nH]c(C)c1-c1nc2ccc(C(=O)c3ccccc3)cc2[nH]1` showed a melting point of 207 to 214 °C.
For `CCN1C(=O)C(C)(C)C(=O)N(C)c2cc(CN(CCn3cc(C)c4occc4c3=O)Cc3cc(COC)nn3C)ccc21`, the melting point was 169 to 170 °C.
With `O=[N+]([O-])c1ccc(Cl)cc1NC1CCCC1` the melting point was 75 °C.
With `CC(=O)c1cc(N(C)C)ccc1NC(=O)c1cccc(OCc2ccccc2)c1` the melting point was 147 to 149 °C.
In the case of `OC(c1ccccc1)c1ccc2c(c1)N1CCN=C1S2` (stereo not drawn), the melting point is reported as 175 °C.

— a melting point compilation (Tetko et al.; mined from patent text by program, amines drawn as free bases though some values may be those of a salt)
